Laboratory results taken from article PMC11089506 (Journal of Medicinal Chemistry, 2024).
“Also recorded” adds a separate entry of the source. Counter-ions that a name gives are not always drawn. Like-named read-outs stand apart in the source and are kept apart here.

How the values were obtained:
[1] = molecular target: T1, SERT (Homo sapiens, UniProt P31645); test: radioligand competition binding, [3H]imipramine
T1 construct: Eurofins

[2] = molecular target: human 5-HT2CR (Homo sapiens, UniProt P28335); test: Ca2+/Fluo-4 assay, agonist mode, stable 5-HT2CR-HEK293 cells
[3] = molecular target: T2, human 5-HT2BR (Homo sapiens, UniProt P41595); test: Calcium No Wash PLUS assay, 5-HT2BR-HEK293 cells (Eurofins); format: cell-based; settings: fluorescence-based Ca2+ imaging assay
T2 construct: host or cells: HEK293 (membrane homogenates)

[4] = molecular target: T3, Bradykinin receptor B2 (Homo sapiens, UniProt P30411); test: radioligand competition binding, [3H]Bradykinin
T3 construct: Eurofins

[5] = molecular target: Ca2+ Channel N-Type (Rattus norvegicus, UniProt Q02294); test: biochemical; format: binding
[6] = molecular target: T4, 5-HT1D (Rattus norvegicus, UniProt P28565); test: radioligand competition binding, [3H]serotonin
T4 construct: Eurofins

[7] = molecular target: T5, K+ Channel (KATP) (Cricetus cricetus, UniProt Q09427); test: radioligand competition binding, [3H]Glyburide; set-up: species or system hamster
T5 construct: Eurofins

[8] = molecular target: T6, D1 (dopaminergic receptor) (Homo sapiens, UniProt P21728); test: radioligand competition binding, [3H]SCH 23390; settings: read-out: % inhibition of the specific radioligand binding
T6 construct: Eurofins

[9] = molecular target: T7, 5-HT6 (Homo sapiens, UniProt P50406); test: radioligand competition binding, [3H]LSD
T7 construct: Eurofins

[10] = molecular target: T8, D4.4 (dopaminergic receptor) (Homo sapiens, UniProt P21917); test: radioligand competition binding, [3H]methyl-spiperone; settings: read-out: % inhibition of the specific radioligand binding
T8 construct: Eurofins

[11] = molecular target: T9, Estrogen receptor ERα (Homo sapiens, UniProt P03372); test: radioligand competition binding, [3H]Estradiol
T9 construct: Eurofins

[12] = molecular target: T10, β2 (adrenergic receptor) (Homo sapiens, UniProt P07550); test: radioligand competition binding, [3H](-)CGP 12177
T10 construct: Eurofins

[13] = molecular target: T11, α1D (adrenergic receptor) (Homo sapiens, UniProt P25100); test: radioligand competition binding, [3H]Prazosin
T11 construct: Eurofins

[14] = molecular target: T12, M2 (muscarinic receptor) (Homo sapiens, UniProt P08172); test: radioligand competition binding, [3H]AF-DX 384
T12 construct: Eurofins

[15] = molecular target: T13, Opioid receptor μ (Homo sapiens, UniProt P35372); test: radioligand competition binding, [3H]Diprenorphine (second line)
T13 construct: Eurofins

[16] = molecular target: T14, 5-HT7 (Homo sapiens, UniProt P34969); test: radioligand competition binding, [3H]LSD
T14 construct: Eurofins

[17] = molecular target: Ca2+ Channel L-Type, (Dihydropyridine) (Rattus norvegicus, UniProt P22002); test: biochemical; settings: read-out: % inhibition of the specific radioligand binding
[18] = molecular target: Androgen receptor (NHR) (Homo sapiens, UniProt P10275); test: biochemical; settings: read-out: % inhibition of the specific radioligand binding
[19] = molecular target: T15, M1 (muscarinic receptor) (Homo sapiens, UniProt P11229); test: radioligand competition binding, [3H]pirenzepine
T15 construct: Eurofins
T15 sequence (P11229 1-460): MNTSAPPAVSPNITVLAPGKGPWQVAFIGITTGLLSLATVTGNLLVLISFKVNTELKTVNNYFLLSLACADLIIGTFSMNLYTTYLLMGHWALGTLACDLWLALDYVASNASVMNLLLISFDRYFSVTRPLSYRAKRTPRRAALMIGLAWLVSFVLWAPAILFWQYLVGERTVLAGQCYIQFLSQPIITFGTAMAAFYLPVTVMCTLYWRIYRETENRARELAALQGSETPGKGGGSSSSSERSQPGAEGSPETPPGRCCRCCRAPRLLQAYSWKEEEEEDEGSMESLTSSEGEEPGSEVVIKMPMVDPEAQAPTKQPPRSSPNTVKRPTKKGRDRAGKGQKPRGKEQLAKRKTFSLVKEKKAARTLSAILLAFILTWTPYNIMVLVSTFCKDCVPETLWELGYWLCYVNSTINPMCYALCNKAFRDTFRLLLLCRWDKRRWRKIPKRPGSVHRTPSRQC

[20] = molecular target: NMDA receptor (Glutamate) (Rattus norvegicus, UniProt Q00959); test: biochemical; settings: read-out: % inhibition of the specific radioligand binding
[21] = molecular target: T16, D5 (dopaminergic receptor) (Homo sapiens, UniProt P21918); test: radioligand competition binding, [3H]SCH 23390; settings: read-out: % inhibition of the specific radioligand binding
T16 construct: Eurofins

[22] = molecular target: T17, Opioid receptor κ (Homo sapiens, UniProt P41145); test: radioligand competition binding, [3H]Diprenorphine (first line)
T17 construct: Eurofins

[23] = molecular target: T18, Endothelin receptor ETA (Homo sapiens, UniProt P25101); test: radioligand competition binding, [125I]Endothelin-1
T18 construct: Eurofins

[24] = molecular target: T19, Adenosine receptor A2A (Homo sapiens, UniProt P29274); test: radioligand competition binding, [3H]CGS-21680
T19 construct: Eurofins

[25] = molecular target: T20, D2S (dopaminergic receptor) (Homo sapiens, UniProt P14416); test: radioligand competition binding, [3H]7-OH-DPAT; settings: read-out: % inhibition of the specific radioligand binding
T20 construct: Eurofins

[26] = molecular target: T21, Prostanoid receptor EP4 (Homo sapiens, UniProt P35408); test: radioligand competition binding, [3H]Prostaglandin E2
T21 construct: Eurofins

[27] = molecular target: T22, H3 (histaminergic receptor) (Homo sapiens, UniProt Q9Y5N1); test: radioligand competition binding, [3H]N-α-methyl-histamine
T22 construct: Eurofins

[28] = molecular target: T23, GABAB(1a,2) receptor (Homo sapiens, UniProt Q9UBS5); test: radioligand competition binding, [3H]CGP-54626
T23 construct: Eurofins

[29] = molecular target: T24, Cannabinoid receptor CB1 (Homo sapiens, UniProt P21554); test: radioligand competition binding, [3H]SR141716A
T24 construct: Eurofins

[30] = estimated from the % inhibition data
[31] = read-out: % inhibition of the specific radioligand binding

**Q.** Which IC50 [1, 30] does the source give for COc1cc(C(F)(F)F)c(OC)cc1[C@@H]1CCCNC1 [(S)-11, 3-(2,5-Dimethoxy-4-(trifluoromethyl)phenyl)piperidine Hydrochloride] here?
**A.** Its IC50 is greater than 10 µM.

**Q.** What about the inhibition at 10 µM [1, 31] of the same molecule?
**A.** Its inhibition at 10 µM is 22%.

**Q.** What about the “agonist activity at 5-HT2CR (in words)” value [2] of the same molecule?
**A.** Its value is “negligible agonist efficacy; also recorded: absence of measurable agonist efficacy”.

**Q.** What about the EC50 ([2]; 5-HT2CR EC50 (nM), Table 1, at least 3 independent experiments) of the same molecule?
**A.** Its EC50 is greater than 50000 nM.

**Q.** What about the “agonist activity at 5-HT2CR (in words)” value ([2]; listed as 11eu) of the same molecule?
**A.** The value was “did not elicit measurable agonist activity”.

**Q.** What about the EC50 [3] of the same molecule?
**A.** The EC50 was 0.19 µM.

**Q.** And the IC50 [4, 30]?
**A.** The IC50 was greater than 10 µM.

**Q.** What about the inhibition at 10 µM [4, 31] of the same molecule?
**A.** The inhibition at 10 µM was 18%.

**Q.** What about the IC50 [5] of the same molecule?
**A.** The IC50 was greater than 10 µM.

**Q.** What about the inhibition at 10 µM [5, 31] of the same molecule?
**A.** The inhibition at 10 µM was -5%.

**Q.** And the IC50 [6, 30]?
**A.** The IC50 was 0.1 to 1 µM.

**Q.** And the inhibition at 0.1 µM [6, 31]?
**A.** The inhibition at 0.1 µM was 18%.

**Q.** And the inhibition at 1 µM [6, 31]?
**A.** Its inhibition at 1 µM is 64%.

**Q.** What about the inhibition at 10 µM [6, 31] of the same molecule?
**A.** Its inhibition at 10 µM is 93%.

**Q.** What about the IC50 [7, 30] of the same molecule?
**A.** The IC50 was greater than 10 µM.

**Q.** And the inhibition at 10 µM [7, 31]?
**A.** The inhibition at 10 µM was -2%.

**Q.** And the inhibition at 10 µM [8]?
**A.** The inhibition at 10 µM was 30%.

**Q.** And the IC50 [9, 30]?
**A.** Its IC50 is 1 to 10 µM.

**Q.** And the inhibition at 1 µM [9, 31]?
**A.** Its inhibition at 1 µM is 24%.

**Q.** What about the inhibition at 10 µM [9, 31] of the same molecule?
**A.** The inhibition at 10 µM was 77%.

**Q.** And the inhibition at 10 µM [10]?
**A.** The inhibition at 10 µM was 9%.

**Q.** And the IC50 [11, 30]?
**A.** Its IC50 is greater than 10 µM.

**Q.** And the inhibition at 10 µM [11, 31]?
**A.** The inhibition at 10 µM was -2%.

**Q.** What about the IC50 [12, 30] of the same molecule?
**A.** The IC50 was roughly 10 µM.

**Q.** What about the inhibition at 1 µM [12, 31] of the same molecule?
**A.** Its inhibition at 1 µM is 2%.

**Q.** What about the inhibition at 10 µM [12, 31] of the same molecule?
**A.** The inhibition at 10 µM was 55%.

**Q.** What about the IC50 [13, 30] of the same molecule?
**A.** The IC50 was greater than 10 µM.

**Q.** And the inhibition at 10 µM [13, 31]?
**A.** Its inhibition at 10 µM is 27%.

**Q.** What about the IC50 [14, 30] of the same molecule?
**A.** Its IC50 is roughly 10 µM.

**Q.** And the inhibition at 10 µM [14, 31]?
**A.** Its inhibition at 10 µM is 40%.

**Q.** What about the IC50 [15, 30] of the same molecule?
**A.** Its IC50 is greater than 10 µM.

**Q.** What about the inhibition at 10 µM [15, 31] of the same molecule?
**A.** Its inhibition at 10 µM is 18%.

**Q.** What about the IC50 [16, 30] of the same molecule?
**A.** Its IC50 is 1 to 10 µM.

**Q.** What about the inhibition at 1 µM [16, 31] of the same molecule?
**A.** The inhibition at 1 µM was 17%.

**Q.** And the inhibition at 10 µM [16, 31]?
**A.** The inhibition at 10 µM was 62%.

**Q.** What about the inhibition at 10 µM [17] of the same molecule?
**A.** The inhibition at 10 µM was -6%.

**Q.** And the inhibition at 10 µM [18]?
**A.** Its inhibition at 10 µM is 1%.

**Q.** What about the IC50 [19, 30] of the same molecule?
**A.** The IC50 was roughly 1 µM.

**Q.** What about the inhibition at 1 µM [19, 31] of the same molecule?
**A.** Its inhibition at 1 µM is 51%.

**Q.** What about the inhibition at 10 µM [19, 31] of the same molecule?
**A.** Its inhibition at 10 µM is 90%.

**Q.** What about the inhibition at 10 µM [20] of the same molecule?
**A.** The inhibition at 10 µM was -8%.

**Q.** And the inhibition at 10 µM [21]?
**A.** The inhibition at 10 µM was 26%.

**Q.** What about the IC50 [22, 30] of the same molecule?
**A.** The IC50 was greater than 10 µM.

**Q.** What about the inhibition at 10 µM [22, 31] of the same molecule?
**A.** Its inhibition at 10 µM is 18%.

**Q.** What about the IC50 [23, 30] of the same molecule?
**A.** Its IC50 is greater than 10 µM.

**Q.** What about the inhibition at 10 µM [23, 31] of the same molecule?
**A.** Its inhibition at 10 µM is 12%.

**Q.** What about the IC50 [24, 30] of the same molecule?
**A.** The IC50 was greater than 10 µM.

**Q.** What about the inhibition at 10 µM [24, 31] of the same molecule?
**A.** The inhibition at 10 µM was -19%.

**Q.** And the inhibition at 10 µM [25]?
**A.** Its inhibition at 10 µM is 59%.

**Q.** What about the IC50 [26, 30] of the same molecule?
**A.** Its IC50 is greater than 10 µM.

**Q.** What about the inhibition at 10 µM [26, 31] of the same molecule?
**A.** The inhibition at 10 µM was 9%.

**Q.** And the IC50 [27, 30]?
**A.** The IC50 was greater than 10 µM.

**Q.** What about the inhibition at 10 µM [27, 31] of the same molecule?
**A.** Its inhibition at 10 µM is 11%.

**Q.** And the IC50 [28, 30]?
**A.** Its IC50 is greater than 10 µM.

**Q.** And the inhibition at 10 µM [28, 31]?
**A.** Its inhibition at 10 µM is 6%.

**Q.** What about the IC50 [29, 30] of the same molecule?
**A.** Its IC50 is greater than 10 µM.

**Q.** What about the inhibition at 10 µM [29, 31] of the same molecule?
**A.** The inhibition at 10 µM was 14%.
